# System: clinical mastitis
# Assay: Field trials: intramammary infusion in mastitis
# Type: in vivo, cow
# Conditions: treated one time on the previous day
# Excerpt: CDRMREC was infused up the teat duct of all 4 quarters of a cow that had clinical mastitis in the left hindquarter. […] Additionally, because of a differential in the vacuum when milking the cow, infected discharge from the left hindquarter contaminated the left fore quarter which then began to show symptoms of clinical mastitis (flaking in the milk). The left fore quarter had not been infused with erythromycin. […] All signs of swelling were gone. The milk from all quarters was normal and untainted.
# Treatment consisted of six 10 ml intramamery ductal infusions of CDRMREC in the afflicted quarter following each milking.
# A Jersey cow was suffering from mastitis in the right forequarter and had received an antibiotic infusion in that quarter. […] The next day, after the PM milking, she received only one 10 ml infusion of CDRMREC in each of her quarters.
# Her milk appeared normal. Three days later, the swelling was still present and like a flattened golf ball but the milk tested normal.
structure (smiles),measurement,value
CC[C@H]1OC(=O)[C@H](C)[C@@H](O[C@H]2C[C@@](C)(OC)[C@@H](O)[C@H](C)O2)[C@H](C)[C@@H](O[C@@H]2O[C@H](C)C[C@H](N(C)C)[C@H]2O)[C@](C)(O)C[C@@H](C)C(=O)[C@H](C)[C@@H](O)[C@]1(C)O [erythromycin],swelling of afflicted quarter,the swelling still remained
